{
  "source": "patent US20050053658A1",
  "about": "“Extended release systems for macrolide antibiotics” (priority 2003, published 2005)",
  "origin": "cited, not measured here",
  "data": [
    {"smiles": "CC[C@H]1OC(=O)[C@H](C)[C@@H](O[C@H]2C[C@@](C)(OC)[C@@H](O)[C@H](C)O2)[C@H](C)[C@@H](O[C@@H]2O[C@H](C)C[C@H](N(C)C)[C@H]2O)[C@](C)(OC)C[C@@H](C)C(=O)[C@H](C)[C@@H](O)[C@]1(C)O", "note": "[Clarithromycin]", "values": [
      {"measurement": "water solubility", "result": "poorly water soluble"}
    ]}
  ]
}
